From article PMC3969020 (Biochemistry, 2014)

What was measured:
Assay type in all cases: biochemical
[1] = target: T1, Horse liver alcohol dehydrogenase (ADH), E isoenzyme (Equus caballus, UniProt P00327); experiment: product inhibition against NAD+
[2] = target: T2, Horse liver alcohol dehydrogenase (ADH), E isoenzyme (Equus caballus, UniProt P00327, V208A); experiment: product inhibition against NAD+
[3] = target: T2, Horse liver alcohol dehydrogenase (ADH), E isoenzyme; experiment: X-ray crystal structure, […] Å
[4] = target: T1, Horse liver alcohol dehydrogenase (ADH), E isoenzyme; experiment: initial velocity and product inhibition kinetics

T1 sequence (P00327 2-375): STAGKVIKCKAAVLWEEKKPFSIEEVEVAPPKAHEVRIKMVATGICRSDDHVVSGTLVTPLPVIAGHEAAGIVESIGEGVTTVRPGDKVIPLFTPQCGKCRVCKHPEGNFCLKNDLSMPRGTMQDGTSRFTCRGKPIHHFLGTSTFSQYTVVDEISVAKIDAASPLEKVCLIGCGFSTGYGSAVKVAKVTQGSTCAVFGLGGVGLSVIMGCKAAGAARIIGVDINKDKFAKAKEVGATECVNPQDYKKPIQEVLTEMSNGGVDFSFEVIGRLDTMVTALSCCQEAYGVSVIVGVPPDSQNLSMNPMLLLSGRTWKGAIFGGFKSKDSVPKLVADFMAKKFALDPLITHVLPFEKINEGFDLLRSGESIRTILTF
T2 sequence (P00327 2-375 V208A): as the sequence (P00327 2-375) above, with V207A counted along it

Row | Ki [1] | Ki [2] | Ki [3] | Ki [4] | Structure (SMILES)
1 | 0.31 ± 0.02 µM | 0.39 ± 0.01 µM |  |  | NC(=O)C1=CN([C@@H]2O[C@H](COP(=O)(O)OP(=O)(O)OC[C@H]3O[C@@H](n4cnc5c(N)ncnc54)[C@H](O)[C@@H]3O)[C@@H](O)[C@H]2O)C=CC1 [NADH]
2 |  |  | 59 ± 5 µM | 20 ± 5 µM | NC(=O)c1ccc[n+]([C@@H]2O[C@H](COP(=O)([O-])OP(=O)(O)OC[C@H]3O[C@@H](n4cnc5c(N)ncnc54)[C@H](O)[C@@H]3O)[C@@H](O)[C@H]2O)c1 [NAD^+]
